Two compounds from patent US20050031670A1, “Weight reduction or weight controlling composition” (priority 2001, published 2005) can be followed below.

Structures can show the parent of a compound that is named as a salt.

The test system of experiment [1] is Obese patients (BMI≧30). Put plainly: Weight loss in obese patients given bupropion without food component or dietary intervention (Example 2, comparative). The conditions noted are these: 300 mg bupropion (150 mg twice a day), no food component nor dietary counseling. The experiment is classed as in vivo, human. The method, then:
Example 2 (Comparative): An analysis was conducted of obese patients (BMI≧30) who were given 300 mg of bupropion (150 mg twice a day) in the absence of the food component of the invention nor any other dietary counseling or intervention. Weight loss was negligible, the average weight loss per patient in the 300 mg study was 2.4 Kg after 12 months.

The test system of experiment [2] is Obese patients (BMI≧30). Kind of experiment: Weight loss in obese patients given bupropion plus low calorie nutritional beverage (Example 3, invention). The format is in vivo, human. The conditions noted are these: 600 Kcal deficit diet, end of 6 months. The method, then: Example 3 (Invention): Obese patients (BMI≧30) were given 300 mg (N=110) or 400 mg (N=105) of bupropion and a low calorie, nutritional beverage (Slim Fast™, 11.5 oz.) for two meals per day for 6 months to achieve a 600 Kcal deficit diet. That is, each patient was given 150 or 200 mg of bupropion HCL sustained release, respectively, in a nutritional beverage (a food component of the invention) twice a day. At the end of the end of 6 months, the average weight loss was 7.2 kg and 10.1 kg for the 300 mg and 400 mg groups, respectively.

Consider `CC(NC(C)(C)C)C(=O)c1cccc(Cl)c1` (racemic) [bupropion, (±)-1-(3-chlorophenyl)-2-[(1,1-dimethyl)amino]-1-propanone hydrochloride], for which, in experiment [1], the “Weight loss (in words)” value is given as “negligible”. Besides, the “average weight loss per patient” value in experiment [1] (after 12 months) came out at 2.4 kg.
For `CC(NC(C)(C)C)C(=O)c1cccc(Cl)c1` (single isomer, unassigned; (+)) [bupropion HCL sustained release, (+)-2-(tert-butylamino)-3′-chloropropiophenome hydrochloride], the average weight loss is on record as 7.2 kg in experiment [2] (300 mg group (150 mg twice a day) in Slim Fast 11.5 oz for two meals per day) and 10.1 kg in experiment [2] (400 mg group (200 mg twice a day) in Slim Fast 11.5 oz for two meals per day).
